These results are taken from patent publication US20040116516A1 (Boehringer Ingelheim Pharma GmbH & Co. KG, priority 2002, published 2004).

The assay relates to arachidonic acid induced mouse ear inflammation. The assay is described as follows: arachidonic acid induced mouse ear inflammation test (MPO as index of neutrophil accumulation). It counts as in vivo, mice. Conditions: for maximum inhibitory effect: group5; for effect on arachidonic acid induced ear inflammation in mice (in words): single compounds, oral administration. How it is done:
Female albino mice (Han:NMRI) obtained from Interfauna and weighing about 20-25 g were used. The animals were provided with standardised pellet diet (Altromin 8013) and had tap water freely available. The animals were accommodated in a climatized room with a 12 hours light/dark cycle and kept in groups.
The compound of formula IA and meloxicam were administered orally (0.2 ml/10 g bw) 30 min. before arachidonic acid challenge. Meloxicam was given twice: one dose 16 hours and the second dose 30 minutes before challenge. For every day there was a concurrent control. Then number of animals per group was 7. The study compounds were suspended in 1% methylcellulose (Tylose MH 300, Fluka, CH-9470 Buchs). The experiment was run in five groups. Every group contained one control, two doses of meloxicam, two doses of (IA), and one dose of the combination of the two compounds.
Mice were lightly anesthetized by ether and 1 mg arachidonic acid (10 μl) was applied to each side of the left ear. […] The animals were sacrificed by ether 6 hours later, and a biopsy (diameter 8 mm) was punched out from both ears to assess an increase of neutrophils in the left ear compared with the right ear. Tissue samples were homogenized in 1 ml 0.5% HTAB (Hexadecyl-trimethyl-ammonium-bromide; Sigma H-5882; solved in 0.05 M phosphate buffer, pH 6.0) using a tissue homogenizer (IKA-Ultraturrax T5; Janke & Kunkel, Staufen/Breisgau) at 30000 RPM for 15 seconds. After centrifugation (16000 G, 5 min) the supernatants were frozen until processing for myeloperoxidase (MPO). Determination in the supernatants for MPO, a neutrophil marker enzyme, served as a quantitative index for the neutrophil accumulation.
MPO was determined spectrophotometrically at 450 nm using a micro plate version of the method of Bradley (1982) and a micro plate reader (Vmax; Molecular Devices, Palo Alto) suitable for kinetic measurements and expressed as mean optical density per minute.
For each individual the response myeloperoxidase activity (MPO) in optical density per minute (oD/min) was measured.
For the comparisons the nonparametric statistical methods Kruskal-Wallis-One-Way-ANOVA and the Wilcoxon-Two-Sample-Test (2 sided) have been used. For the first and last comparisons also Bonferroni-Holm adjusted p-values have been calculated.

In the case of `CCOC(=O)N=C(N)c1ccc(OCc2cccc(COc3ccc(C(C)(C)c4ccc(O)cc4)cc3)c2)cc1`, the “effect on arachidonic acid induced ear inflammation in mice (in words)” value is reported as “inhibited arachidonic acid induced ear inflammation in mice”. Where the note is “supra-maximum doses 0.8 and 1.6 mg/kg p.o.”, the maximum inhibitory effect was 66%.

Consider `Cc1cnc(NC(=O)C2=C(O)c3ccccc3S(=O)(=O)N2C)s1` [Meloxicam, meloxicam], for which the “effect on arachidonic acid induced ear inflammation in mice (in words)” value was “inhibited arachidonic acid induced ear inflammation in mice”. The maximum inhibitory effect (supra-maximum doses 16 and 32 mg/kg p.o.) came to 37%.
